Values of other authors in article PMC9668928, “Zandelisib (ME-401) in Japanese patients with relapsed or refractory indolent non-Hodgkin’s lymphoma: an open-label, multicenter, dose-escalation phase 1 study” (International Journal of Hematology, 2022).

Tested on: basophil activation
Set-up: method as in PMID 30458930
Conditions: 60 mg/day; cited from earlier work

CN1CCC(c2ccccc2CC(C)(C)Nc2nc(N3CCOCC3)nc(-n3c(C(F)F)nc4ccccc43)n2)CC1 [zandelisib]
target inhibition at trough plasma concentrations: ≥ 90%
